The values below are quoted from earlier work in US9125814B2, “Biocompatible crosslinked hydrogels, drug-loaded hydrogels and methods of using the same” (Angiotech Pharmaceuticals, Inc., priority 2008, dated 2015).

In general, pKa refers to the negative logarithm of the acid dissociation constant.

Take `CCCCN1CCCCC1C(=O)Nc1c(C)cccc1C` (racemic) [racemic bupivacaine, 1-butyl-N-(2,6-dimethylphenyl)piperidine-2-carboxamide]: the pKa is around 8.1.
